Experimental data from patent publication US20160324149A1, “ADJUVANTS FOR PLANT GROWTH REGULATORS” (VERDESIAN LIFE SCINCES, LLC, priority 2014, published 2016).

System: soybean seedlings
Experiment: Soybean seedling spray test, dry weight one week later
Assay type: in vivo
Conditions: for Mean Plant Dry Wt. / Total Dry Wt.: sprayed at 20 gallons per acre, harvested one week later
Protocol: In this test, soybean seedlings at true leaf emergence were sprayed with a series of aqueous test solutions at a rate of 20 gallons per acre. In those solutions including AVAIL®, use was made of AVAIL® for liquid phosphate fertilizers. The beans were then harvested one week later and were counted, dried, and weighed, and average weight per plant was determined.

C=C1C[C@]23C[C@@]1(O)CC[C@H]2[C@@]12C=C[C@H](O)[C@@](C)(C(=O)O1)[C@H]2[C@@H]3C(=O)O [gibberellic acid]
Mean plant dry weight as gibberellic acid concentration increased (50-500 ppm): the mean plant dry weight also increased
Mean Plant Dry Wt. (50 ppm gibberellic acid): 1.594 g
Total Dry Wt. (50 ppm gibberellic acid): 17.53 g
Mean Plant Dry Wt. (100 ppm gibberellic acid): 1.808 g
Total Dry Wt. (100 ppm gibberellic acid): 18.08 g
Mean Plant Dry Wt. (250 ppm gibberellic acid): 1.718 g
Total Dry Wt. (250 ppm gibberellic acid): 20.61 g
Mean Plant Dry Wt. (500 ppm gibberellic acid): 2.280 g
Total Dry Wt. (500 ppm gibberellic acid): 22.80 g
